Test results: US20060069132A1, “Azolecarboxamide herbicides” (priority 2004, published 2006)
Like-named read-outs stand apart in the source and are kept apart here.

Legend:
[1] = system: morningglory; assay: Test B pre-/postemergence herbicide test; assay type: in vivo, Ipomoea coccinea
How it was run: (§1)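 Pre: seeds sown, then sprayed. Post: 1–4-leaf plants (2–18 cm) sprayed at the same time. Paddy: flooded, treated at 2-leaf stage. Formulation: non-phytotoxic solvent with surfactant. Greenhouse 13–15 days; visual 0–100 score relative to controls.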

[2] = system: Surinam grass; assay: Test B pre-/postemergence herbicide test; assay type: in vivo, Urochloa decumbens
How it was run: (§2)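 Plants compared with untreated controls 13–15 days post-treatment and given a visual 0–100 injury score. Applications: preemergence to seeds; postemergence at 1- to 4-leaf (2–18 cm); paddy species flooded, 2-leaf stage. Vehicle non-phytotoxic, surfactant included.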

[3] = system: blackgrass; assay: Test B postemergence herbicide test; assay type: in vivo, Alopecurus myosuroides; conditions: for Blackgrass plant response rating: postemergence
How it was run: (§3)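 Read-out: visual comparison with controls, scored 0 to 100, where 100 means complete control and 0 no effect. Formulated chemicals were applied postemergence to plants 2–18 cm tall (1- to 4-leaf), or to flooded-paddy plants at the 2-leaf stage, then held 13 to 15 days under glass.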

[4] = system: wheat; assay: Test B postemergence herbicide test; assay type: in vivo, Triticum aestivum; parameters: key to Wheat plant response rating: 0 = no effect, 100 = complete control
How it was run: as §3

[5] = system: giant foxtail; assay: Test B pre-/postemergence herbicide test; assay type: in vivo, Setaria faberi; conditions: for Foxtail, Giant plant response rating: postemergence
How it was run: as §2

[6] = system: barnyardgrass; assay: Test B flooded paddy test; assay type: in vivo, Echinochloa crus-galli; conditions: 1000 g ai/ha, scale 0 to 100 (0 no effect, 100 complete control)
How it was run: as §3

[7] = system: cocklebur; assay: Test B pre-/postemergence herbicide test; assay type: in vivo, Xanthium strumarium; conditions: for Cocklebur plant response rating: postemergence
How it was run: as §1

[8] = system: corn; assay: Test B pre-/postemergence herbicide test; assay type: in vivo, Zea mays; conditions: for Corn plant response rating: postemergence
How it was run: as §2

[9] = system: lambsquarters; assay: Test B pre-/postemergence herbicide test; assay type: in vivo, Chenopodium album
How it was run: as §2

[10] = system: ducksalad; assay: Test B flooded paddy test; assay type: in vivo, Heteranthera limosa; conditions: 1000 g ai/ha, scale 0 to 100 (0 no effect, 100 complete control)
How it was run: as §3

[11] = system: barnyardgrass; assay: Test B pre-/postemergence herbicide test; assay type: in vivo, Echinochloa crus-galli; conditions: for Barnyardgrass plant response rating: postemergence
How it was run: as §1

[12] = system: rice; assay: Test B flooded paddy test; assay type: in vivo, Oryza sativa; conditions: 1000 g ai/ha, scale 0 to 100 (0 no effect, 100 complete control)
How it was run: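 Formulated test chemicals went onto postemergence plants measuring 2 to 18 cm, at one to four leaves. For the paddy assay, species had reached two leaves. Scoring took place 13–15 days later by eye, relative to untreated plants, using 0 for no effect up to 100 for full control.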

[13] = system: wild oat; assay: Test B postemergence herbicide test; assay type: in vivo, Avena fatua; conditions: scale 0 (no effect) to 100 (complete control)
How it was run: as §3

[14] = system: large crabgrass; assay: Test B pre-/postemergence herbicide test; assay type: in vivo, Digitaria sanguinalis; conditions: for Crabgrass, Large plant response rating: postemergence
How it was run: as §2

[15] = system: small flower umbrella sedge; assay: Test B flooded paddy test; assay type: in vivo, Cyperus difformis; conditions: 1000 g ai/ha, scale 0 to 100 (0 no effect, 100 complete control)
How it was run: as §3

[16] = system: pigweed; assay: Test B pre-/postemergence herbicide test; assay type: in vivo, Amaranthus retroflexus
How it was run: as §2

[17] = Postemergence, 500 g ai/ha, visual rating after 13 to 15 days, scale 0 (no effect) to 100 (complete control)
[18] = 125 g ai/ha, 0 is no effect, 100 is complete control, preemergence
[19] = 125 g ai/ha, visual rating, scale 0 (no effect) to 100 (complete control), postemergence
[20] = Postemergence, 500 g ai/ha, scale 0 (no effect) to 100 (complete control)
[21] = 125 g ai/ha, visual rating, scale 0 (no effect) to 100 (complete control)
[22] = 500 g ai/ha, scale 0 to 100, 0 is no effect, 100 is complete control

CCNC(=O)c1ccc(F)c(NC(=O)c2cc(C(C)(C)C)nn2CC)c1 [Compound 2, 3-(1,1-dimethylethyl)-1-ethyl-N-[5-[(ethylamino)carbonyl]-2-fluorophenyl]-1H-pyrazole-5-carboxamide]
pest or weed control at 125 g/ha ([1]; Ipomoea, post-emergence, 336 h, Postemergence, 125 g ai/ha, scale 0 (no effect) to 100 (complete control), read-out: Morningglory plant response rating): 30% | pest or weed control at 500 g/ha ([1]; Ipomoea, post-emergence, 336 h, Postemergence, 500 g ai/ha, visual rating after 13 to 15 days, scale 0 (no effect) to 100 (complete control), read-out: Plant response rating, Morningglory): 70% | pest or weed control at 500 g/ha ([1]; Ipomoea, pre-emergence, 336 h, Preemergence, 500 g ai/ha, scale 0 to 100, read-out: Morningglory plant response rating): 90% | pest or weed control at 125 g/ha ([2]; Urochloa decumbens, post-emergence, Postemergence, 125 g ai/ha, scale 0 (no effect) to 100 (complete control), read-out: Surinam Grass plant response rating): 20% | pest or weed control at 500 g/ha ([2]; Urochloa decumbens, post-emergence, Postemergence, 500 g ai/ha, visual rating after 13 to 15 days, scale 0 (no effect) to 100 (complete control), read-out: Plant response rating, Surinam Grass): 50% | pest or weed control at 500 g/ha ([2]; Urochloa decumbens, pre-emergence, Preemergence, 500 g ai/ha, scale 0 to 100, read-out: Surinam Grass plant response rating): 100% | pest or weed control at 125 g/ha ([3]; Alopecurus myosuroides, post-emergence, 336 h, Postemergence, 125 g ai/ha, scale 0 (no effect) to 100 (complete control), read-out: Blackgrass plant response rating): 10% | Plant response rating, Blackgrass [3, 17]: 30 | Plant response rating, Wheat [4, 17]: 20 | plant injury at 125 g/ha ([4]; Triticum aestivum, post-emergence, 336 h, Postemergence, 125 g ai/ha, scale 0 (no effect) to 100 (complete control), read-out: Wheat plant response rating): 20% | pest or weed control at 125 g/ha ([5]; Setaria faberi, post-emergence, 336 h, Postemergence, 125 g ai/ha, scale 0 (no effect) to 100 (complete control), read-out: Foxtail, Giant plant response rating): 30% | pest or weed control at 500 g/ha ([5]; Setaria faberi, post-emergence, 336 h, Postemergence, 500 g ai/ha, visual rating after 13 to 15 days, scale 0 (no effect) to 100 (complete control), read-out: Plant response rating, Foxtail, Giant): 30% | pest or weed control at 500 g/ha ([5]; Setaria faberi, pre-emergence, 336 h, Preemergence, 500 g ai/ha, scale 0 to 100, read-out: Foxtail, Giant plant response rating): 100% | pest or weed control at 1000 g/ha ([6]; Echinochloa crus-galli, 336 h, visual rating, 13 to 15 days, read-out: Barnyardgrass plant response rating): 90% | pest or weed control at 125 g/ha ([7]; Xanthium strumarium, post-emergence, Postemergence, 125 g ai/ha, scale 0 (no effect) to 100 (complete control), read-out: Cocklebur plant response rating): 50% | pest or weed control at 500 g/ha ([7]; Xanthium strumarium, post-emergence, Postemergence, 500 g ai/ha, visual rating after 13 to 15 days, scale 0 (no effect) to 100 (complete control), read-out: Plant response rating, Cocklebur): 80% | pest or weed control at 500 g/ha ([7]; Xanthium strumarium, pre-emergence, Preemergence, 500 g ai/ha, scale 0 to 100, read-out: Cocklebur plant response rating): 90% | plant injury at 125 g/ha ([8]; Zea mays, post-emergence, Postemergence, 125 g ai/ha, scale 0 (no effect) to 100 (complete control), read-out: Corn plant response rating): 20% | Corn plant response rating (crop injury, 0 = no effect, 100 = complete kill) at 500 g/ha ([8]; Zea mays, post-emergence, Postemergence, 500 g ai/ha, visual rating after 13 to 15 days, scale 0 (no effect) to 100 (complete control)): 20% | plant injury at 500 g/ha ([8]; Zea mays, pre-emergence, Preemergence, 500 g ai/ha, scale 0 to 100, read-out: Corn plant response rating): 80% | pest or weed control at 125 g/ha ([9]; Chenopodium album, post-emergence, 336 h, Postemergence, 125 g ai/ha, scale 0 (no effect) to 100 (complete control), read-out: Lambsquarters plant response rating): 80% | pest or weed control at 500 g/ha ([9]; Chenopodium album, post-emergence, 336 h, Postemergence, 500 g ai/ha, visual rating after 13 to 15 days, scale 0 (no effect) to 100 (complete control), read-out: Plant response rating, Lambsquarters): 90% | pest or weed control at 500 g/ha ([9]; Chenopodium album, pre-emergence, 336 h, Preemergence, 500 g ai/ha, scale 0 to 100, read-out: Lambsquarters plant response rating): 100% | pest or weed control at 1000 g/ha ([10]; Heteranthera limosa, 336 h, visual rating, 13 to 15 days, read-out: Ducksalad plant response rating): 90% | pest or weed control at 125 g/ha ([11]; Echinochloa crus-galli, post-emergence, Postemergence, 125 g ai/ha, scale 0 (no effect) to 100 (complete control), read-out: Barnyardgrass plant response rating): 30% | pest or weed control at 500 g/ha ([11]; Echinochloa crus-galli, post-emergence, Postemergence, 500 g ai/ha, visual rating after 13 to 15 days, scale 0 (no effect) to 100 (complete control), read-out: Plant response rating, Barnyardgrass): 70% | pest or weed control at 500 g/ha ([11]; Echinochloa crus-galli, pre-emergence, Preemergence, 500 g ai/ha, scale 0 to 100, read-out: Barnyardgrass plant response rating): 100% | plant injury at 1000 g/ha ([12]; Oryza sativa, 336 h, visual rating, 13 to 15 days, read-out: Rice plant response rating): 70% | pest or weed control at 125 g/ha ([13]; Avena fatua, post-emergence, 336 h, Postemergence, 125 g ai/ha, read-out: Oat, Wild plant response rating): 20% | Plant response rating, Oat, Wild ([13]; Postemergence, 500 g ai/ha, visual rating after 13 to 15 days): 30 | pest or weed control at 125 g/ha ([14]; Digitaria sanguinalis, post-emergence, Postemergence, 125 g ai/ha, scale 0 (no effect) to 100 (complete control), read-out: Crabgrass, Large plant response rating): 20% | pest or weed control at 500 g/ha ([14]; Digitaria sanguinalis, post-emergence, Postemergence, 500 g ai/ha, visual rating after 13 to 15 days, scale 0 (no effect) to 100 (complete control), read-out: Plant response rating, Crabgrass, Large): 30% | pest or weed control at 500 g/ha ([14]; Digitaria sanguinalis, pre-emergence, Preemergence, 500 g ai/ha, scale 0 to 100, read-out: Crabgrass, Large plant response rating): 100% | pest or weed control at 1000 g/ha ([15]; Cyperus difformis, 336 h, visual rating, 13 to 15 days, read-out: Sedge, Umbrella plant response rating): 90% | pest or weed control at 125 g/ha ([16]; Amaranthus retroflexus, post-emergence, 336 h, Postemergence, 125 g ai/ha, scale 0 (no effect) to 100 (complete control), read-out: Pigweed plant response rating): 60% | pest or weed control at 500 g/ha ([16]; Amaranthus retroflexus, post-emergence, 336 h, Postemergence, 500 g ai/ha, visual rating after 13 to 15 days, scale 0 (no effect) to 100 (complete control), read-out: Plant response rating, Pigweed): 70% | pest or weed control at 500 g/ha ([16]; Amaranthus retroflexus, pre-emergence, 336 h, Preemergence, 500 g ai/ha, scale 0 to 100, read-out: Pigweed plant response rating): 100%

CCc1nn(C(C)(C)C)nc1C(=O)Nc1cccc(C(=O)N(C)CC)c1 [Compound 384]
Plant response rating (0 to 100 scale), Morningglory [1, 18]: 10 | Morningglory plant response rating [1, 19]: 30 | Morningglory plant response rating [1, 20]: 40 | Plant response rating (0 to 100 scale), Surinam Grass [2, 18]: 100 | Surinam Grass plant response rating [2, 19]: 10 | Surinam Grass plant response rating [2, 20]: 60 | Blackgrass plant response rating [3, 21]: 20 | Blackgrass plant response rating [3, 22]: 50 | Wheat plant response rating [4, 19]: 10 | Wheat plant response rating ([4]; 500 g ai/ha, scale 0 to 100, 0 no effect, 100 complete control, preemergence): 100 | Wheat plant response rating [4, 20]: 20 | Plant response rating (0 to 100 scale), Foxtail, Giant [5, 18]: 90 | Foxtail, Giant plant response rating [5, 21]: 10 | Foxtail, Giant plant response rating [5, 22]: 30 | Barnyardgrass plant response rating [6]: 90 | Plant response rating (0 to 100 scale), Cocklebur [7, 18]: 0 | Cocklebur plant response rating [7, 21]: 30 | Cocklebur plant response rating [7, 22]: 40 | Plant response rating (0 to 100 scale), Corn [8, 18]: 80 | Corn plant response rating [8, 21]: 0 | Corn plant response rating [8, 22]: 10 | Plant response rating (0 to 100 scale), Lambsquarters [9, 18]: 100 | Lambsquarters plant response rating [9, 19]: 70 | Lambsquarters plant response rating [9, 20]: 80 | Ducksalad plant response rating [10]: 80 | Plant response rating (0 to 100 scale), Barnyardgrass [11, 18]: 90 | Barnyardgrass plant response rating [11, 21]: 0 | Barnyardgrass plant response rating [11, 22]: 30 | Rice plant response rating [12]: 90 | Oat, Wild plant response rating ([13]; 125 g ai/ha, visual rating, postemergence): 10 | Oat, Wild plant response rating ([13]; Postemergence, 500 g ai/ha): 30 | Plant response rating (0 to 100 scale), Crabgrass, Large [14, 18]: 90 | Crabgrass, Large plant response rating [14, 21]: 10 | Crabgrass, Large plant response rating [14, 22]: 40 | Sedge, Umbrella plant response rating [15]: 80 | Plant response rating (0 to 100 scale), Pigweed [16, 18]: 90 | Pigweed plant response rating [16, 19]: 30 | Pigweed plant response rating [16, 20]: 70
